Reference: patent US20140357713A1, “ANTIMICROBIAL COMPOUNDS AND METHODS OF USE” (NexMed Holdings, Inc., priority 2012, published 2014)
Counter-ions that a name gives are not always drawn. Like-named read-outs stand apart in the source and are kept apart here.

Tests used:
[1] = test system: Staphulococcus aureus (ATCC 29213); assay: Minimum inhibitory concentration (MIC) assay, Example 33; format: cell-based, Staphylococcus aureus; conditions: Staphylococcus aureus
Method in brief: (§1)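 Broth microdilution MIC per CLSI guidelines, in CAMHB with serial 2-fold compound dilutions. Bacterial inocula were adjusted to a 0.5 McFarland standard, then diluted 1:100 and 1:2 in the wells. Plates were incubated at 35 °C, and the MIC was read according to CLSI.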

[2] = test system: Aspergillus niger (CMCC 98003); assay: as above; format: cell-based; conditions: for MIC: Aspergillus niger; for MIC Aspergillus niger: n = 2
Method in brief: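 Conidia gently probed from sporulating colonies into RPMI 1640, set to 0.09-0.13 at 530 nm, then diluted 1:50 and mixed 1:2 with 2-fold serially diluted compounds. Following CLSI guidelines, incubation was at 35 °C before the MIC was recorded.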

[3] = pH (Table 1); format: physicochemical
[4] = test system: Candida albicans (ATCC 90029); assay: Time kill study, Example 33 (0 to 5 min); format: cell-based; conditions: 1×MIC
Method in brief: (§2)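 Read-out: Log10 CFU/mL by colony count on agar after 24 to 48 hrs. Exposure: strain suspension and compound solution at equal volume, CLSI method, samples at 0 min, 30 sec, 1 min and 5 mins diluted in test medium before plating.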

[5] = test system: Candida albicans (ATCC 90029); assay: Minimum inhibitory concentration (MIC) assay, Example 33; format: cell-based; conditions: Candida albicans
Method in brief: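 MIC read per CLSI after incubation at 35° C. Colonies in RPMI 1640 adjusted to OD530 0.08–0.13, diluted 1:50 and 1:20 to twice test density, then added 1:2 to wells holding 2-fold serial drug dilutions in RPMI 1640 (CLSI microdilution).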

[6] = Solubility (Sol., Table 1); format: physicochemical
[7] = test system: Pseudomonas aeruginosa (ATCC 27853); assay: Minimum inhibitory concentration (MIC) assay, Example 33; format: cell-based; conditions: Pseudomonas aeruginosa
Method in brief: as §1

[8] = test system: Escherichia coli (ATCC 25922); assay: as above; format: cell-based; conditions: Escherichia coli
Method in brief: as §1

[9] = test system: Pseudomonas aeruginosa (ATCC 27853); assay: Time kill study, Example 33 (0 to 5 min); format: cell-based; conditions: 1×MIC
Method in brief: as §2

[10] = test system: Staphylococcus aureus (ATCC 29213); assay: Time kill study, Example 33 (0 to 5 min); format: cell-based; conditions: 1×MIC
Method in brief: as §2

[11] = test system: Escherichia coli (ATCC 25922); assay: Time kill study, Example 33 (0 to 5 min); format: cell-based; conditions: 1×MIC
Method in brief: as §2

[12] = ATCC29213, read-out: MIC S. aureus, n = 1
[13] = ATCC29213, read-out: MIC S. aureus, n = 2
[14] = CMCC98003, read-out: MIC Aspergillus niger
[15] = ATCC90029, read-out: MIC Candida albicans, n = 1
[16] = ATCC90029, read-out: MIC Candida albicans, n = 2
[17] = ATCC27853, read-out: MIC P. aeruginosa, n = 1
[18] = ATCC27853, read-out: MIC P. aeruginosa, n = 2
[19] = ATCC25922, Table 19 summary of Example 33 and Example 35
[20] = ATCC25922, read-out: MIC E. coli, n = 1
[21] = ATCC25922, read-out: MIC E. coli, n = 2

| Structure (SMILES) | MIC ([1]; ATCC29213, Table 19 summary) | MIC [1, 12] | MIC [1, 13] | MIC ([2]; CMCC98003) | MIC [2, 14] | MIC Aspergillus niger [2] | pH [3] | MIC ([5]; ATCC90029, Table 19 summary) | MIC [5, 15] | MIC [5, 16] | Sol. [6] | MIC ([7]; ATCC27853, Table 19 summary) | MIC [7, 17] | MIC [7, 18] | MIC [8, 19] | MIC [8, 20] | MIC [8, 21] | Viable counts, Pseudomonas aeruginosa time kill study ([9]; 0.5 min) | Viable counts, Pseudomonas aeruginosa time kill study ([9]; 1 min) | Viable counts, Pseudomonas aeruginosa time kill study ([9]; 5 min) | further results |
| --- | --- | --- | --- | --- | --- | --- | --- | --- | --- | --- | --- | --- | --- | --- | --- | --- | --- | --- | --- | --- | --- |
| CCCCCCCCCCCCOC(=O)C(Cc1ccccc1)N(C)C (stereo not drawn) [Nex-54, Dodecyl 2-(dimethylamino)-3-phenylpropanoate hydrochloride] | ≥ 12500 µg/mL | > 12500 µg/mL | 12500 µg/mL | 12500 µg/mL | 12500 µg/mL | 12500 µg/mL | 2.16 | 6250 µg/mL | 6250 µg/mL | 6250 µg/mL | 58% | ≥ 12500 µg/mL | > 12500 µg/mL | 12500 µg/mL | ≥ 12500 µg/mL | > 12500 µg/mL | 12500 µg/mL | – | – | – | Viable counts, Candida albicans time kill study ([4]; 0.5 min): 5.56 Log10 CFU/mL; Viable counts, Candida albicans time kill study ([4]; 1 min): 5.52 Log10 CFU/mL; Viable counts, Candida albicans time kill study ([4]; 5 min): 5.48 Log10 CFU/mL; Viable counts, Candida albicans time kill study ([4]; time 0): 5.56 Log10 CFU/mL |
| CCCCCCCCCCCCOC(=O)C(C)(C)N(C)C [Nex-58, Dodecyl 2-(dimethylamino)-2-methylpropanoate hydrochloride] | – | 3130 µg/mL | 1560 µg/mL | > 12500 µg/mL | > 12500 µg/mL | >12500 µg/mL | 2.27 | > 12500 µg/mL | > 12500 µg/mL | > 12500 µg/mL | 51% | 6250 µg/mL | 6250 µg/mL | 6250 µg/mL | 3130 µg/mL | 3130 µg/mL | 3130 µg/mL | <4.0 Log10 CFU/mL | <3.70 Log10 CFU/mL | <3.52 Log10 CFU/mL | Viable counts, Pseudomonas aeruginosa time kill study ([9]; time 0): 5.54 Log10 CFU/mL; Viable counts, Staphylococcus aureus time kill study ([10]; 0.5 min): 6.15 Log10 CFU/mL; Viable counts, Staphylococcus aureus time kill study ([10]; 1 min): 6.11 Log10 CFU/mL; Viable counts, Staphylococcus aureus time kill study ([10]; 5 min): 5.81 Log10 CFU/mL; Viable counts, Staphylococcus aureus time kill study ([10]; time 0): 6.26 Log10 CFU/mL; Viable counts, Escherichia coli time kill study ([11]; 0.5 min): <4.0 Log10 CFU/mL; Viable counts, Escherichia coli time kill study ([11]; 1 min): <3.70 Log10 CFU/mL; Viable counts, Escherichia coli time kill study ([11]; 5 min): <3.52 Log10 CFU/mL; Viable counts, Escherichia coli time kill study ([11]; time 0): 5.91 Log10 CFU/mL |
| CCCCCCCCCCCC(C)OC(=O)C(C)N(C)C (stereo not drawn) [Nex-64, Tridecan-2-yl 2-(dimethylamino)propanoate hydrochloride] | 3130 µg/mL | 3130 µg/mL | 3130 µg/mL | > 12500 µg/mL | > 12500 µg/mL | >12500 µg/mL | 1.95 | > 12500 µg/mL | > 12500 µg/mL | > 12500 µg/mL | 44% | 6250 µg/mL | 6250 µg/mL | 6250 µg/mL | 3130 µg/mL | 3130 µg/mL | 3130 µg/mL | 4 Log10 CFU/mL | <3.70 Log10 CFU/mL | <3.52 Log10 CFU/mL | Viable counts, Pseudomonas aeruginosa time kill study ([9]; time 0): 5.45 Log10 CFU/mL; Viable counts, Staphylococcus aureus time kill study ([10]; 0.5 min): 6.41 Log10 CFU/mL; Viable counts, Staphylococcus aureus time kill study ([10]; 1 min): 6.38 Log10 CFU/mL; Viable counts, Staphylococcus aureus time kill study ([10]; 5 min): 6.36 Log10 CFU/mL; Viable counts, Staphylococcus aureus time kill study ([10]; time 0): 6.34 Log10 CFU/mL; Viable counts, Escherichia coli time kill study ([11]; 0.5 min): 5.73 Log10 CFU/mL; Viable counts, Escherichia coli time kill study ([11]; 1 min): 5.7 Log10 CFU/mL; Viable counts, Escherichia coli time kill study ([11]; 5 min): <3.52 Log10 CFU/mL; Viable counts, Escherichia coli time kill study ([11]; time 0): 5.71 Log10 CFU/mL |
